Assay results taken from patent US12637687B2, “Nucleic acid molecules, polypeptides having epoxy group-removing catalytic activity and use thereof” (SHANDONG AGRICULTURAL UNIVERSITY, priority 2020, dated 2026).

B1: ThFhb7: de-epoxidase from Thinopyrum ponticum; polypeptide having epoxy group-removing catalytic activity, amino acid sequence SEQ ID NO: 36, gene SEQ ID NO: 1 (protein, listed as Elytrigia ponticum)
chain: MATSASTSTPIIPTAIAGAPPVAGTCCAVAPTLSALALAPLAVPTTTTTVLMPAISSVAASLAVPACALPAAGSAPATLPIIHAPATASLVGASPAIAATLGATTPASGAGALPPPGLLATAVGAAMPGLLIPLSGIAASPGLAATAAPASAVAAAPTAHVGLMVHGLPLAPATAAVTLAGPVAAAGLSSTAALGMVGGAAALMMGSLAAMLGALAALPALAASGPPLLGGAATTAAMIVGGTLAMMAATLPVSGTGGAAACHGAIPGGLHAALALTAGVL

Legend:
[1] = tested on: pancreatic cancer cell line (PATU8988); experiment: Cytotoxicity assay by CCK8 method; settings: PATU8988, 48 h treatment, CCK-8, OD450
ThFhb7 [2] = assay type: cell-based, Thinopyrum ponticum
ThFhb7 [3] = tested on: ThFhb7; set-up: species or system Thinopyrum ponticum; settings: in vivo
[4] = tested on: human embryonic kidney cell 293-derived line (293T); experiment: Cytotoxicity assay by CCK8 method; settings: 48 h treatment, CCK-8, OD450
[5] = tested on: normal human esophageal epithelial cells (HEECs); experiment: Cytotoxicity assay by CCK8 method; settings: 48 h treatment, CCK-8, OD450
F. asiaticum = settings: in vivo
F. pseudograminearum [6] = settings: in vivo
[7] = In vitro enzymatic reaction system of ThFhb7 polypeptide (DON + GSH, LC-HRMS); assay type: biochemical
Experimental: The optimal conditions for the in vitro enzymatic reaction system of ThFhb7 polypeptide were established by gradient experiments of three different factors affecting the enzymatic reaction: • (1) the gradient of reaction enzyme amounts: 1 μg, 5 μg, 10 μg, 25 μg, and 50 μg; • (2) the pH gradient set with various buffers: ranging from 3.0 to 10.0, disodium hydrogen phosphate-citric acid buffer (pH=3.0, 4.0, 5.0), disodium hydrogen phosphate-potassium dihydrogen phosphate buffer (pH=6.0, 7.0), and Tris-phosphate buffer (pH=8.0, 9.0, 10.0); and • (3) the gradient of reaction temperatures: 4° C., 12° C., 15° C., 20° C., 25° C., 30° C., 37° C., 45° C., and 50° C.
The reaction was performed in a phosphate buffer (PBS) (pH=7.0), at 25° C. for 12 h, and samples were taken at 0 h, 0.5 h, 1 h, 3 h, and 6 h respectively for LC-HRMS analysis; through the area results of first-level scanning of LC-HRMS, the changes in the amounts of the two substances, DON as the reaction substrate and the GSH adduct as the reaction product, were obtained with proceeding of reaction, so as to obtain the optimal enzyme amount for the reaction, as shown in FIGS. 14A and 14B. […]

Pichia pastoris = experiment: DON tolerance of transgenic Pichia pastoris; assay type: cell-based; settings: YPDA media comprising 400 μM DON, 5 days
F. pseudograminearum [8] = settings: in vivo; remark: listed apart in the source

Row | Molecule | cell viability [1] | DON-GSH adduct in DON-treated yeast expressing the active polypeptide (ThFhb7 [2]) | amounts decreased as compared with the control (ThFhb7 [3]) | toxin significantly reduced as compared with wheat without ThFhb7 (ThFhb7 [3]) | cell viability [4] | cell viability [5] | diseased spot area on leaves vs KN199 (F. asiaticum) | diseased spot area on leaves vs KN199 (F. pseudograminearum [6]) | catalysis of vomitoxin into a glutathione adduct in vitro ([7]; DON 1 mg, GSH in PBS, 20° C., 24 h) | enzyme activity above 37° C. (DON-GSH cannot be detected) ([7]; above 37° C., pH 7.0, 25 μg enzyme) | growth viability vs transgenic yeast with the blank vector (Pichia pastoris) | death rate of transgenic plants vs wild type (F. pseudograminearum [8]) | degree of disease at the stem base vs control (F. pseudograminearum [8])
1 | CC1=C[C@H]2O[C@@H]3[C@H](O)C[C@](C)([C@@]2(CO)[C@H](O)C1=O)[C@]31CO1 [DON, deoxynivalenol] | decreases sharply | detected | about ⅔ | about ⅓ | decreases sharply | decreases sharply |  |  |  |  |  |  | 
2 | CC(=O)O[C@@H]1C[C@]2(C)[C@@]3(CO)[C@H](O)C(=O)C(C)=C[C@H]3O[C@H]1[C@@]21CO1 [3-ADON, 3-acetyl-deoxynivalenol] |  |  | about ⅔ | about ⅓ |  |  |  |  |  |  |  |  | 
3 | B1 |  |  |  |  |  |  | significantly reduced | significantly reduced | efficiently catalyze vomitoxin into a glutathione adduct | basically lost its activity | significantly higher | significantly lower | less severe
